In ChEMBL document CHEMBL1151175, “Cytotoxic sesquiterpenoids from Eupatorium chinense” (J Nat Prod, 2004) one finds IC50 data, which are given here for five compounds.

In brackets after ≈: the same amount, converted by molar mass.

The test system of test [1] is Bel-7402. As to the kind of experiment: Cytotoxicity against human Bel7402 cells. It is filed as functional, cell-based.
The subject of test [2] is HL-60. As to the kind of experiment: Cytotoxicity against human HL60 cells. In kind it is functional, cell-based.

One may read the IC50 as the concentration needed to halve the response being measured. The low end stands for higher potency, the high end for lower potency. In the case of `CC[C@@]1(O)C(=O)OCc2c1cc1n(c2=O)Cc2cc3cc(O)ccc3nc2-1` [HYDROXYCAMPTOTHECIN], the IC50 amounted to 0.62 µg/mL (≈ 1.7 µM) in test [1] and 0.024 µg/mL (≈ 0.0659 µM) in test [2].

Regarding `C=C1C(=O)O[C@H]2[C@H]1[C@H](OC(=O)/C(C)=C/CO)C[C@](O)(CCl)[C@@H]1[C@H](O)[C@H]3O[C@@]3(C)[C@H]21` [EUPACHINILIDE E], the half-inhibitory concentration (IC50) in test [1] turned out to be 18 µg/mL (≈ 42 µM); in test [2], 1.3 µg/mL (≈ 3.03 µM).

For the compound `C=C1C(=O)O[C@H]2[C@H]1[C@H](OC(=O)/C(C)=C/CO)C[C@](O)(CCl)[C@@H]1[C@H](OC(C)=O)[C@H]3O[C@@]3(C)[C@H]21` [EUPACHNILIDE F], the IC50 came out at 3.7 µg/mL (≈ 7.86 µM) in test [1] and 0.87 µg/mL (≈ 1.85 µM) in test [2].

Consider `C=C1C(=O)O[C@H]2[C@H]1[C@H](OC(=O)/C(C)=C\C)CC(CO)=C1C[C@H](O)[C@](C)(O)[C@@H]12` [EUPACHINILIDE A], for which the IC50 in test [1] was 72.2 µg/mL (≈ 191 µM); in test [2] it was 10.8 µg/mL (≈ 28.5 µM).

Regarding `C=C1C(=O)O[C@@H]2/C=C(\C)C[C@H](O)/C=C(\C)C[C@@H](OC(=O)/C(C)=C/COC(C)=O)[C@@H]12` [EUPACHINILIDE I], the figures for the half-inhibitory concentration (IC50) in test [1] and in test [2] were 3.6 µg/mL (≈ 8.9 µM) and 0.94 µg/mL (≈ 2.32 µM), respectively.
